Assay results published in paper PMC2686105, “Role of the stage-regulated nucleoside transporter TbNT10 in differentiation and adenosine uptake in Trypanosoma brucei” (Molecular and Biochemical Parasitology, 2007).

Biological target: T1, TbNT10 (Trypanosoma brucei, UniProt Q38EK0)
T1 construct: gene Tb09.160.5480; endogenous in procyclic forms and re-expressed (addback clone A) from an EP procyclin locus in the TbNT10 null mutant
Experiment: 3H-adenosine uptake; wild type, null mutant and addback procyclic cells
Assay type: cell-based
Conditions: procyclic forms; 5 min; labelled compound; transporter activity judged by null mutant versus addback

T1 sequence (Q38EK0 entry or part of it): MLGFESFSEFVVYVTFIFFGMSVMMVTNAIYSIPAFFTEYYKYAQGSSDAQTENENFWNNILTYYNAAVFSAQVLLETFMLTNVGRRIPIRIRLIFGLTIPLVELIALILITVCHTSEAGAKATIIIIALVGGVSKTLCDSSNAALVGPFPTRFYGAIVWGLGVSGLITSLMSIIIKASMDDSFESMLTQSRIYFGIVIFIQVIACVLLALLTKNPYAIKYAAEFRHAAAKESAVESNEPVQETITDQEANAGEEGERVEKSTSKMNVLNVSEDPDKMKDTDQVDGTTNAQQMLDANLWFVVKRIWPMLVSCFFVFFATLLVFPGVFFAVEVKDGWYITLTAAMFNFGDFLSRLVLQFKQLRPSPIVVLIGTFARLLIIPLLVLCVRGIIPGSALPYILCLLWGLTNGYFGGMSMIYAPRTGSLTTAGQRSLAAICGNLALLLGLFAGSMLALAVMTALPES

Question: Nc1ncnc2c1ncn2[C@@H]1O[C@H](CO)[C@@H](O)[C@H]1O [adenosine] was tested. Which “3H-adenosine uptake; wild type, null mutant and addback procyclic cells” value did it give?
Answer: it is the main transporter for adenosine in this life cycle stage
